Experimental data reported in PMC9977294, “A parasitic fungus employs mutated eIF4A to survive on rocaglate-synthesizing Aglaia plants” (eLife, 2023).
Several values for one entry are separate records, joined by “and”; a condition that tells them apart may be missing. Equal entries are not always repeated.

Key:
[1] = target: Ophiocordyceps sp. BRM1 eIF4A iso4 Gly172His; experiment: Fluorescence polarization assay, FAM-labeled [AG]10 RNA and recombinant eIF4A; assay type: binding; details: for Fluorescence polarization signal, FAM-labeled [AG]10 RNA, single replicates / Fluorescence polarization signal, FAM-labeled [AG]10 RNA, Mean: ADP + Pi, aglafoline; for Fluorescence polarization signal, FAM-labeled [AG]10 RNA, single replicates: Replicate 1-3; for Fluorescence polarization signal, FAM-labeled [AG]10 RNA, Mean: mean of 3 replicates
Experimental: (§1) The fluorescence polarization assay was performed as previously described ([Chen et al., 2021]). […] After incubation at room temperature for 30 min, the mixture was transferred to a black 384-well microplate (Corning), and the fluorescence polarization was measured by an Infinite F-200 PRO (Tecan). Under ADP + Pi conditions, 1 mM ADP (Fujifilm Wako Chemicals) and 1 mM Na2HPO4 were used as substitutes for AMP-PNP. The data were fitted to the Hill equation to calculate Kd values and visualized by Igor Pro v8.01 (WaveMetrics).

[2] = target: Ophiocordyceps sp. BRM1 eIF4A iso4 Gly172Phe; experiment: as above; assay type: binding; details: for Fluorescence polarization, Replicate 1-3 / fluorescence polarization, Mean: [AG]10 RNA, ADP + Pi, Aglafoline
Experimental: as §1

[3] = target: Ophiocordyceps sp. BRM1 eIF4A iso4 WT Gly172; experiment: as above; assay type: binding; details: for Fluorescence polarization signal, FAM-labeled [AG]10 RNA, single replicates / Fluorescence polarization signal, FAM-labeled [AG]10 RNA, Mean: ADP + Pi, aglafoline; for Fluorescence polarization signal, FAM-labeled [AG]10 RNA, single replicates: Replicate 1-3; for Fluorescence polarization signal, FAM-labeled [AG]10 RNA, Mean: mean of 3 replicates
Experimental: as §1

[4] = tested on: C. sativus leaves; experiment: Morphology of cucumber leaves sprayed with aglafoline; assay type: in vivo, Cucumis sativus; details: aglafoline 1 µM in water sprayed, 3 days
Experimental: Figure 4. Phenotypic comparison of the C. orbiculare eIF4A^WT and eIF4A^His153Gly strains during infection in the presence of rocaglate. (A) Workflow for monitoring the biomass of C. orbiculare eIF4A^WT or eIF4A^His153Gly strains on cucumber leaves under treatment with aglafoline. (B) Comparison of in planta fungal biomass of C. orbiculare eIF4A^WT or eIF4A^His153Gly strains with or without treatment with 1 µM aglafoline. Relative expression levels of the C. orbiculare 60 S ribosomal protein L5 gene (GenBank: Cob_v012718) normalized to that of a cucumber cyclophilin gene (GenBank: AY942800.1) were determined by RT–qPCR at 3 dpi (n = 8). The relative fungal biomasses of C. orbiculare were normalized to those of eIF4A^WT without aglafoline. Significance was calculated by Student’s t-test (two-tailed). […] Figure 4—source data 1. Files for the primary data corresponding to Figure 4B. Figure 4—figure supplement 1. Characterization of cucumber leaves treated with aglafoline. (A) C. sativus leaves were sprayed with DMSO or aglafoline (1 µM) in water and incubated for 3 days using the same method as C. orbiculare inoculation. Figure 4—figure supplement 1—source data 1. Files for the full and unedited pictures corresponding to Figure 4—figure supplement 1A. [drawing 12]

[5] = [AG]10 10 nM, ADP + Pi (1 mM each), compound 50 µM, read-out: Kd between eIF4A protein and RNA

COC(=O)[C@H]1[C@@H](O)[C@@]2(O)c3c(OC)cc(OC)cc3O[C@@]2(c2ccc(OC)cc2)[C@@H]1c1ccccc1 [Aglafoline, methyl rocaglate]
Kd [1, 5]: 1500 ± 140 nM
Fluorescence polarization signal, FAM-labeled [AG]10 RNA, single replicates ([1]; protein concentration 0.01 μM): -0.03825 and 0.04372 (2×)
Fluorescence polarization signal, FAM-labeled [AG]10 RNA, Mean ([1]; protein concentration 0.01 μM): 0.01639
Fluorescence polarization signal, FAM-labeled [AG]10 RNA, single replicates ([1]; protein concentration 0.05 μM): 0.04372 and 0.1011 and 0.0765
Fluorescence polarization signal, FAM-labeled [AG]10 RNA, Mean ([1]; protein concentration 0.05 μM): 0.07377
Fluorescence polarization signal, FAM-labeled [AG]10 RNA, single replicates ([1]; protein concentration 0.075 μM): 0.0847 and 0.06011 and 0.03552
Fluorescence polarization signal, FAM-labeled [AG]10 RNA, Mean ([1]; protein concentration 0.075 μM): 0.06011
Fluorescence polarization signal, FAM-labeled [AG]10 RNA, single replicates ([1]; protein concentration 0.1 μM): 0.0847 and 0.06011 and 0.06831
Fluorescence polarization signal, FAM-labeled [AG]10 RNA, Mean ([1]; protein concentration 0.1 μM): 0.07104
Fluorescence polarization signal, FAM-labeled [AG]10 RNA, single replicates ([1]; protein concentration 0.5 μM): 0.3388 and 0.429 and 0.3634
Fluorescence polarization signal, FAM-labeled [AG]10 RNA, Mean ([1]; protein concentration 0.5 μM): 0.377
Fluorescence polarization signal, FAM-labeled [AG]10 RNA, single replicates ([1]; protein concentration 0.75 μM): 0.5191 and 0.4372 and 0.429
Fluorescence polarization signal, FAM-labeled [AG]10 RNA, Mean ([1]; protein concentration 0.75 μM): 0.4617
Fluorescence polarization signal, FAM-labeled [AG]10 RNA, single replicates ([1]; protein concentration 1 μM): 0.5765 and 0.7158 and 0.5847
Fluorescence polarization signal, FAM-labeled [AG]10 RNA, Mean ([1]; protein concentration 1 μM): 0.6257
Fluorescence polarization signal, FAM-labeled [AG]10 RNA, single replicates ([1]; protein concentration 5 μM): 1.011 and 0.9208 and 0.888
Fluorescence polarization signal, FAM-labeled [AG]10 RNA, Mean ([1]; protein concentration 5 μM): 0.9399
Fluorescence polarization signal, FAM-labeled [AG]10 RNA, single replicates ([1]; protein concentration 7.5 μM): 1.019 and 0.9372 and 0.9699
Fluorescence polarization signal, FAM-labeled [AG]10 RNA, Mean ([1]; protein concentration 7.5 μM): 0.9754
Fluorescence polarization signal, FAM-labeled [AG]10 RNA, single replicates ([1]; protein concentration 10 μM): 1.126 and 1.06 and 1.027
Fluorescence polarization signal, FAM-labeled [AG]10 RNA, Mean ([1]; protein concentration 10 μM): 1.071
Fluorescence polarization signal, FAM-labeled [AG]10 RNA, single replicates ([1]; protein concentration 25 μM): 1.208 and 1.167 and 1.15
Fluorescence polarization signal, FAM-labeled [AG]10 RNA, Mean ([1]; protein concentration 25 μM): 1.175
Fluorescence polarization signal, FAM-labeled [AG]10 RNA, single replicates ([1]; protein concentration 50 μM): 1.191 and 1.306 and 1.257
Fluorescence polarization signal, FAM-labeled [AG]10 RNA, Mean ([1]; protein concentration 50 μM): 1.251
Kd [2, 5]: 110 ± 21 nM
Fluorescence polarization, Replicate 1-3 ([2]; protein concentration 0.01 μM): 0.1148 and 0.008197 and 0.04098
fluorescence polarization, Mean ([2]; protein concentration 0.01 μM): 0.05464
Fluorescence polarization, Replicate 1-3 ([2]; protein concentration 0.05 μM): 0.2869 (2×) and 0.3279
fluorescence polarization, Mean ([2]; protein concentration 0.05 μM): 0.3005
Fluorescence polarization, Replicate 1-3 ([2]; protein concentration 0.075 μM): 0.3689 and 0.3279 and 0.2869
fluorescence polarization, Mean ([2]; protein concentration 0.075 μM): 0.3279
Fluorescence polarization, Replicate 1-3 ([2]; protein concentration 0.1 μM): 0.5164 and 0.3115 and 0.2787
fluorescence polarization, Mean ([2]; protein concentration 0.1 μM): 0.3689
Fluorescence polarization, Replicate 1-3 ([2]; protein concentration 0.5 μM): 0.9262 and 0.9426 and 0.8197
fluorescence polarization, Mean ([2]; protein concentration 0.5 μM): 0.8962
Fluorescence polarization, Replicate 1-3 ([2]; protein concentration 0.75 μM): 0.9508 and 0.8443 and 0.8934
fluorescence polarization, Mean ([2]; protein concentration 0.75 μM): 0.8962
Fluorescence polarization, Replicate 1-3 ([2]; protein concentration 1 μM): 0.7869 and 0.877 and 0.7623
fluorescence polarization, Mean ([2]; protein concentration 1 μM): 0.8087
Fluorescence polarization, Replicate 1-3 ([2]; protein concentration 5 μM): 0.9016 and 0.9426 and 0.8852
fluorescence polarization, Mean ([2]; protein concentration 5 μM): 0.9098
Fluorescence polarization, Replicate 1-3 ([2]; protein concentration 7.5 μM): 0.8934 and 1.016 and 0.9344
fluorescence polarization, Mean ([2]; protein concentration 7.5 μM): 0.9481
Fluorescence polarization, Replicate 1-3 ([2]; protein concentration 10 μM): 1.057 and 0.8934 and 0.877
fluorescence polarization, Mean ([2]; protein concentration 10 μM): 0.9426
Fluorescence polarization, Replicate 1-3 ([2]; protein concentration 25 μM): 0.8852 and 1.033 and 1.057
fluorescence polarization, Mean ([2]; protein concentration 25 μM): 0.9918
Kd [3, 5]: 2600 ± 400 nM
Fluorescence polarization signal, FAM-labeled [AG]10 RNA, single replicates ([3]; protein concentration 0.01 μM): 0.02459 and 0.04098 and 0.008197
Fluorescence polarization signal, FAM-labeled [AG]10 RNA, Mean ([3]; protein concentration 0.01 μM): 0.02459
Fluorescence polarization signal, FAM-labeled [AG]10 RNA, single replicates ([3]; protein concentration 0.05 μM): 0.03279 and -0.008197 and -0.07377
Fluorescence polarization signal, FAM-labeled [AG]10 RNA, Mean ([3]; protein concentration 0.05 μM): -0.01639
Fluorescence polarization signal, FAM-labeled [AG]10 RNA, single replicates ([3]; protein concentration 0.075 μM): -0.04918 and -0.03279 and 0.01639
Fluorescence polarization signal, FAM-labeled [AG]10 RNA, Mean ([3]; protein concentration 0.075 μM): -0.02186
Fluorescence polarization signal, FAM-labeled [AG]10 RNA, single replicates ([3]; protein concentration 0.1 μM): -0.02459 and -0.04098 and -0.05738
Fluorescence polarization signal, FAM-labeled [AG]10 RNA, Mean ([3]; protein concentration 0.1 μM): -0.04098
Fluorescence polarization signal, FAM-labeled [AG]10 RNA, single replicates ([3]; protein concentration 0.5 μM): 0.1557 and -0.1066 and 0.01639
Fluorescence polarization signal, FAM-labeled [AG]10 RNA, Mean ([3]; protein concentration 0.5 μM): 0.02186
Fluorescence polarization signal, FAM-labeled [AG]10 RNA, single replicates ([3]; protein concentration 0.75 μM): 0.1967 and 0.03279 and 0.1721
Fluorescence polarization signal, FAM-labeled [AG]10 RNA, Mean ([3]; protein concentration 0.75 μM): 0.1339
Fluorescence polarization signal, FAM-labeled [AG]10 RNA, single replicates ([3]; protein concentration 1 μM): 0.09836 and 0.06557 and 0.1557
Fluorescence polarization signal, FAM-labeled [AG]10 RNA, Mean ([3]; protein concentration 1 μM): 0.1066
Fluorescence polarization signal, FAM-labeled [AG]10 RNA, single replicates ([3]; protein concentration 5 μM): 0.582 and 0.6803 and 0.5902
Fluorescence polarization signal, FAM-labeled [AG]10 RNA, Mean ([3]; protein concentration 5 μM): 0.6175
Fluorescence polarization signal, FAM-labeled [AG]10 RNA, single replicates ([3]; protein concentration 7.5 μM): 0.5902 and 0.6311 and 0.7541
Fluorescence polarization signal, FAM-labeled [AG]10 RNA, Mean ([3]; protein concentration 7.5 μM): 0.6585
Fluorescence polarization signal, FAM-labeled [AG]10 RNA, single replicates ([3]; protein concentration 10 μM): 0.6557 and 0.7049 and 0.7131
Fluorescence polarization signal, FAM-labeled [AG]10 RNA, Mean ([3]; protein concentration 10 μM): 0.6913
Fluorescence polarization signal, FAM-labeled [AG]10 RNA, single replicates ([3]; protein concentration 25 μM): 0.7787 and 0.8279 and 0.877
Fluorescence polarization signal, FAM-labeled [AG]10 RNA, Mean ([3]; protein concentration 25 μM): 0.8279
morphological alteration of cucumber leaves [4]: no morphological alteration of the leaves was observed
